The text below walks through data of patent US20160174533A1 (priority 2009, published 2016).

In one data set the target is T1, androgen receptors (AR) (Homo sapiens, UniProt P10275).
T1 construct: expressed in transfected cells
T1 sequence (P10275 1-920): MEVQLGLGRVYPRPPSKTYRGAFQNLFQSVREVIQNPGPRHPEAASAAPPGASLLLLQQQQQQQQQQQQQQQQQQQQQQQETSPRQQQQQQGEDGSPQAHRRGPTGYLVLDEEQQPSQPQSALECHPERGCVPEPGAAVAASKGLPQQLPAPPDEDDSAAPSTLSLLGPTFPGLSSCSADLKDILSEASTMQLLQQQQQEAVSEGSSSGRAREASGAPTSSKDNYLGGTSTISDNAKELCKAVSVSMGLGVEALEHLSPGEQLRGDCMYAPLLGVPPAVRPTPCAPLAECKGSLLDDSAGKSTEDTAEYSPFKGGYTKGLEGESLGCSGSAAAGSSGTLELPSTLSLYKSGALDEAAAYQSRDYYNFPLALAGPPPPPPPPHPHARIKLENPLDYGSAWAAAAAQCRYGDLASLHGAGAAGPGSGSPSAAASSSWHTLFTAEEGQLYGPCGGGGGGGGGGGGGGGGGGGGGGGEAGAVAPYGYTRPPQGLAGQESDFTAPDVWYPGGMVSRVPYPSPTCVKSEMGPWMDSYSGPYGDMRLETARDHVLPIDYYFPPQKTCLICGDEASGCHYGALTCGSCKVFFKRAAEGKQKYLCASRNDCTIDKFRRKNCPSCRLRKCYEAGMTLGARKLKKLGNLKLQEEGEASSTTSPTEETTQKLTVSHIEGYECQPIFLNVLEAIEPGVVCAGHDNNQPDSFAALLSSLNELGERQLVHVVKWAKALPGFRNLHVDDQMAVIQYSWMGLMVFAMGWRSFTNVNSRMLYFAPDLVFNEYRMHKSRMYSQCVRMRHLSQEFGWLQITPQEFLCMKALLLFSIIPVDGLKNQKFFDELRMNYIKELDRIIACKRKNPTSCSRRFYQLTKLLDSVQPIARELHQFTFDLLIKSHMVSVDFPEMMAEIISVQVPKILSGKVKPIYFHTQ
The note with it: cited from earlier work.

In a further data set the target is T2, ER-alpha (Homo sapiens, UniProt P03372).
T2 construct: expressed in transfected cells
The note with it: cited from earlier work.

Another data set addresses T3, ER-beta (Homo sapiens, UniProt Q92731).
T3 construct: expressed in transfected cells
The conditions noted are these: cited from earlier work.

In data set [1] the target is T4, Cyp1a2 (Homo sapiens, UniProt P05177).
T4 sequence (P05177 1-516): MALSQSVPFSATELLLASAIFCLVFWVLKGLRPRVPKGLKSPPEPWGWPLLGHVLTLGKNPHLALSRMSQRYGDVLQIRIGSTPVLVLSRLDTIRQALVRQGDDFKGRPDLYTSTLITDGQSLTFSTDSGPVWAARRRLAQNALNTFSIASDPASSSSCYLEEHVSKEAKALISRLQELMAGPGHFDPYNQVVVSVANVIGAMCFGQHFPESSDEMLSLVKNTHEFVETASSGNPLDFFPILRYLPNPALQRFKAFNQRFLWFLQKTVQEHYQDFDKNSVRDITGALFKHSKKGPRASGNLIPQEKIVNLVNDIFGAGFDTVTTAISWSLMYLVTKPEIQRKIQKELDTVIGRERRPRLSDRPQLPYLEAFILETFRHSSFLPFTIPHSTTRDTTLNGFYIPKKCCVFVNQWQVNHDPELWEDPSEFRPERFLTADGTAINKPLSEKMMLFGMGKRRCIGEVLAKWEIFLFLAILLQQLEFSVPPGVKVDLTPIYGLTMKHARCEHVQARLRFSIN
The note with it: human populations; cited from earlier work.

Data set [2] deals with Cyp7b1. The note with it: liver and kidney of Cyp7b-/- mice; cited from earlier work.
Data set [3] relates to Cyp7b1. Kind of data set: DHEA metabolism in Cyp7b1 KO rats (transposon insertion).
Data set [4] has as its target T5, Cyp1a2 (Mus musculus, UniProt P00186).
T5 sequence (P00186 2-513): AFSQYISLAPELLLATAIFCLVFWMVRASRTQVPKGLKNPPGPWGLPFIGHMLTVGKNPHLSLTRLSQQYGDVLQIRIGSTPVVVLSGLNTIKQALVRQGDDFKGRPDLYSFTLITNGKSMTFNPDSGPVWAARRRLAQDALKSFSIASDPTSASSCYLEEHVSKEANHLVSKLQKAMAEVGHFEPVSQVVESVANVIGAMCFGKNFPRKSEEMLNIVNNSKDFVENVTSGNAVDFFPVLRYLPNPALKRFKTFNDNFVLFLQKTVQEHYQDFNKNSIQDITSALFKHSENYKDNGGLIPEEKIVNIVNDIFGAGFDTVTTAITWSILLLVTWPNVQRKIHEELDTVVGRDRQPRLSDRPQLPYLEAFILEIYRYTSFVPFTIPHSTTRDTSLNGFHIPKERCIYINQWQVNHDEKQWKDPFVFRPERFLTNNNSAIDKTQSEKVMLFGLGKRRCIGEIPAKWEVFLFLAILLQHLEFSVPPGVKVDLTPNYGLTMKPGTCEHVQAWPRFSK
The conditions noted are these: WT mice; cited from earlier work.

Data set [5] concerns Cyp1a2. The conditions noted are these: Cyp1a2-/- mice; cited from earlier work.
Data set [6] addresses Cyp2e1 (Mus musculus, UniProt Q05421). The note with it: mouse, in vivo, 400 mg/kg; cited from earlier work.
Data set [7] deals with Cyp2e1. The conditions noted are these: Cyp2e1-/- mice; cited from earlier work.
Data set [8] relates to Cyp3a. The conditions noted are these: cited from earlier work.
Data set [9] deals with Cyp3a. The conditions noted are these: cited from earlier work. The source holds these as a separate data set.

Like-named read-outs stand apart in the source and are kept apart here.

T3 sequence (Q92731 whole entry): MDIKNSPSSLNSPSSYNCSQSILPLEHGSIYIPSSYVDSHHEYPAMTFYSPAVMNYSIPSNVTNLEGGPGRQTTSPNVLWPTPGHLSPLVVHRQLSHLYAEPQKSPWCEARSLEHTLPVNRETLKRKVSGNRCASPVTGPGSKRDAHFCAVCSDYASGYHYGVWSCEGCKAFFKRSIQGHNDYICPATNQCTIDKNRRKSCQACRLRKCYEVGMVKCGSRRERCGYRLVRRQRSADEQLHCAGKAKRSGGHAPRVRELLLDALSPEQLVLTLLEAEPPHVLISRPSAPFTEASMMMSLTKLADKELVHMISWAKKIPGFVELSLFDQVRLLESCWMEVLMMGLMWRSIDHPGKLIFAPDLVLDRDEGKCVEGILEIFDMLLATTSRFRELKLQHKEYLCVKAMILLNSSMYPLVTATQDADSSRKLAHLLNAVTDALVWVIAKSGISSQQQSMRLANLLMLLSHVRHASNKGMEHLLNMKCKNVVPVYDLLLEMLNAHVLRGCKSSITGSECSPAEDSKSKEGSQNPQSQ
Sequence of Cyp2e1 (Mus musculus, UniProt Q05421) (Q05421 whole entry): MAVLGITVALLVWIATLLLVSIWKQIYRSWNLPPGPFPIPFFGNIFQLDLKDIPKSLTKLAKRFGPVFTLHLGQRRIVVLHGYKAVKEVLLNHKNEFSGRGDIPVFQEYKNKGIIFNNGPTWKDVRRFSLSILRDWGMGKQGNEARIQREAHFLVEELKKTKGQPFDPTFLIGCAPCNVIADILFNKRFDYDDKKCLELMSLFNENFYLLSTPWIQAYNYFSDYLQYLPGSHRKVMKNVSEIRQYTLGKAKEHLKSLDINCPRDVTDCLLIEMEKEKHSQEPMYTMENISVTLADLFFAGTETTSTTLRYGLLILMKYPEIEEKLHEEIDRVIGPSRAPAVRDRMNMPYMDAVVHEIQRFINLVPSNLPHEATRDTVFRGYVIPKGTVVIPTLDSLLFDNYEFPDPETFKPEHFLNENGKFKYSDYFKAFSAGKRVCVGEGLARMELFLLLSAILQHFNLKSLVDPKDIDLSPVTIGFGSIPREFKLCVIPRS
T2 sequence (P03372 whole entry): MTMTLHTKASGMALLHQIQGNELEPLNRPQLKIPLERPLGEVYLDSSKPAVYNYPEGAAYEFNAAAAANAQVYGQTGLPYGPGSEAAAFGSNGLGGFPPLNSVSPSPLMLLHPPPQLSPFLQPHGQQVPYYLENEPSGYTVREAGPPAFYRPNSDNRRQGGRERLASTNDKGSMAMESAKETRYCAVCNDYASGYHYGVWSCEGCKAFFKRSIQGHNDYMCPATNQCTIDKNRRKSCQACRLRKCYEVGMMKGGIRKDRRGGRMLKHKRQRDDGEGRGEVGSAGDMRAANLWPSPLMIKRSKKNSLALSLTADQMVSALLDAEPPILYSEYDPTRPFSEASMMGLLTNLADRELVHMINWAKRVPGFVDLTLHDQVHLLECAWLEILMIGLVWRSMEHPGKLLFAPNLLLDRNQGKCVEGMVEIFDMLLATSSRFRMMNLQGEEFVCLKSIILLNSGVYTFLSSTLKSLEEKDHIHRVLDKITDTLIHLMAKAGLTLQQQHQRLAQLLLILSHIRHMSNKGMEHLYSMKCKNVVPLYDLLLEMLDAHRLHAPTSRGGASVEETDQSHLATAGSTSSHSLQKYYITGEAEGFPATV

As to `C[C@]12CC[C@H](O)CC1=C[C@@H](O)[C@@H]1[C@@H]2CC[C@]2(C)C(=O)CC[C@@H]12` [7-alpha-hydroxy-DHEA], the receptor activation entry on androgen receptors (AR), on ER-alpha and on ER-beta was “activates” in each case.

For the molecule `Cn1c(=O)c2c(ncn2C)n(C)c1=O` [Caffeine], the half-life on Cyp1a2 [1] is 1.5 to 9.5 h.

As to `C[C@]12CC[C@H](O)CC1=CC[C@@H]1[C@@H]2CC[C@]2(C)C(=O)CC[C@@H]12` [DHEA, dehydroepiandrosterone], the “DHEA conversion to 7D” value in the data set with Cyp7b1 [2] is given as “significantly altered”. Moreover, the “metabolism of DHEA to 7α-hydroxy-DHEA” value with Cyp7b1 [3] is listed as “unable to metabolize”.

Regarding `Clc1cc2c(cc1Cl)Oc1cc(Cl)c(Cl)cc1O2` [TCDD, 2,3,7,8-Tetrachlorodibenzo-p-dioxin], the “liver-to-adipose (L/F) ratio” value at Cyp1a2 [4] was 3.6; in the data set with Cyp1a2 [5] it was 0.2.

As for `CC(=O)Nc1ccc(O)cc1` [acetaminophen], the “mice that succumb to toxicity and die” value on Cyp2e1 [6] is on record as “over 50%”. For the same molecule, in the data set with Cyp2e1 [7], the dose survived result is given as “up to 400 mg/kg”.

As to `CC(=O)O[C@@]12CO[C@@H]1C[C@H](O)[C@@]1(C)C(=O)[C@H](O)C3=C(C)[C@@H](OC(=O)[C@H](O)[C@@H](NC(=O)OC(C)(C)C)c4ccccc4)C[C@@](O)([C@@H](OC(=O)c4ccccc4)[C@H]21)C3(C)C` [docetaxel], the oral bioavailability in the data set with Cyp3a [8] (Cyp3a-/- mice) was 21.2%; with Cyp3a [8] (WT mice), 8.1%. For the same molecule, the “plasma docetaxel, Cyp3a-/- versus WT mice” value in the data set with Cyp3a [8] (after i.v. administration) is recorded as 6.8 fold. Further, in the data set with Cyp3a [8] (after oral administration), the “plasma level of docetaxel, Cyp3a-/- versus WT mice” value is listed as 17.7 fold. The “docetaxel metabolism (KO phenotype)” value in the data set on Cyp3a [8] (mice deficient for gene family Cyp3a) is listed as “function are unable to metabolize docetaxel”. Besides, the results for the M-2 metabolite formation result with Cyp3a [9] (Cyp3a-/- microsomes) and in the data set on Cyp3a [9] (WT microsomes) were “not recognized” and “efficiently formed”, respectively.

As usually defined, the half-life is how long it takes for the measured level to halve.
